According to patent publication US20140135310A1, “SULPHONAMIDE DERIVATIVES OF ALICYCLIC AMINES FOR THE TREATMENT OF CENTRAL NERVOUS SYSTEM DISEASES” (Adamed Sp. z o.o., priority 2011, published 2014):

What was measured:
[1] = biological target: dopaminergic receptors D3 (Homo sapiens, UniProt P35462); experiment: Radioligand binding assay, dopaminergic D3 receptors; details: test compound 1×10^−6 M
Procedure, shortened: (§1)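 Competition radioligand binding at human D2, D3 and D4.4 receptors, detected by scintillation counting; nonspecific binding defined with excess unlabelled ligand. Results as percent inhibition of control specific binding; IC50 by Hill-equation nonlinear regression; Ki via Cheng-Prusoff, with radioligand KD from Scatchard plot.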

receptors D4.4 = biological target: T1, receptors D4.4 (Homo sapiens, UniProt P21917); experiment: Radioligand binding assay, dopaminergic D4 (D4.4) receptors; details: test compound 1×10^−6 M
T1 sequence (P21917 1-419): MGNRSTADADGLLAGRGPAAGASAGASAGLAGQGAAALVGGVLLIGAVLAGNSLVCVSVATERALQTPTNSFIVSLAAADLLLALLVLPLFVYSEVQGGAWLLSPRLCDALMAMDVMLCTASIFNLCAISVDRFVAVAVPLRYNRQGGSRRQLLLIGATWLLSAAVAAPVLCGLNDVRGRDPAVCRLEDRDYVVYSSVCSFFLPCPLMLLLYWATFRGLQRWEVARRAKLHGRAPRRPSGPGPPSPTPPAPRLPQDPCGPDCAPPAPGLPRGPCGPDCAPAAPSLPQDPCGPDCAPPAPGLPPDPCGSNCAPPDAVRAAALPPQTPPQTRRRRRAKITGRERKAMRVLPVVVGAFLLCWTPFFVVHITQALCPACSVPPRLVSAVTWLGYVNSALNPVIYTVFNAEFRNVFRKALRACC
Procedure, shortened: as §1

5-HT2A receptor = biological target: T2, 5-HT2A receptor (Homo sapiens, UniProt P28223); experiment: Radioligand binding assay, serotoninergic 5-HT2A receptors; details: read-out: Inhibition constants Ki, 5-HT2A
T2 construct: purchased PerkinElmer
Procedure, shortened: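 Radioligand competition binding with scintillation counting; nonspecific binding defined by excess unlabelled ligand. Data as percent inhibition of control specific binding. IC50 by Hill-equation fit of competition curves; Ki by Cheng-Prusoff, with radioligand Kd from Scatchard plot.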

5-HT2C receptor = biological target: T3, 5-HT2C receptor (Homo sapiens, UniProt P28335); experiment: Radioligand binding assay, serotoninergic 5-HT2C receptors; details: test compound 1×10^−6 M
T3 construct: expressed in transfected cells; host or cells: HEK-293 cells
T3 sequence (P28335 33-458): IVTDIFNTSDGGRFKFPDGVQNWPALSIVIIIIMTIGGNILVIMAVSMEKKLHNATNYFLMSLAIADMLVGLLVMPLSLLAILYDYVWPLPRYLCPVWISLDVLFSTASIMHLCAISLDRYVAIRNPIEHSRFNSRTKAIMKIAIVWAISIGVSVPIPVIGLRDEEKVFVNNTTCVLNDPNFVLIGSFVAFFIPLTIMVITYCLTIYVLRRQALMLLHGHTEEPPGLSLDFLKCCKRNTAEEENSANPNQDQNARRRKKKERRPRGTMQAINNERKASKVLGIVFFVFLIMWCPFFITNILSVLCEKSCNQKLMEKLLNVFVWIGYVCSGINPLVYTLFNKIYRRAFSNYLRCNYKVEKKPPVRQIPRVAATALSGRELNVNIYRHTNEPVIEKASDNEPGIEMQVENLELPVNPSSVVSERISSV

5-HT6 receptor = biological target: T4, 5-HT6 receptor (Homo sapiens, UniProt P50406); experiment: Radioligand binding assay, serotoninergic 5-HT6 receptors; details: for inhibition at 1 µM: binding assay result in %, Table 5a; for Ki: read-out: Inhibition constants Ki, 5-HT6
T4 construct: purchased PerkinElmer
Procedure, shortened: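 Values are Ki from Cheng–Prusoff, taking IC50 from Hill nonlinear regression of competition curves and KD from a Scatchard plot. Specific binding was total minus binding with excess unlabelled ligand. Radioligand displacement was detected by scintillation counting, and data were also reported as percent of control specific binding.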

5-HT7 receptor = biological target: T5, 5-HT7 receptor (Homo sapiens, UniProt P34969); experiment: Radioligand binding assay, serotoninergic 5-HT7 receptors; details: binding assay result in %, Table 5a;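 further: test compound at 1 µM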
T5 construct: purchased PerkinElmer
Procedure, shortened: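 Competition binding at human 5-HT7 receptors with a radioligand, detected by scintillation counting; non-specific binding was defined with excess unlabelled ligand. IC50 came from Hill-equation fits of competition curves, and Ki from Cheng–Prusoff using radioligand concentration and Scatchard-derived KD.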

M3 muscarinic receptors = biological target: T6, M3 muscarinic receptors (Homo sapiens, UniProt P20309); experiment: Radioligand binding assay, muscarinic M3 receptors; details: test compound 1×10^−6 M
T6 construct: expressed in transfected cells; host or cells: CHO cells
Procedure, shortened: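 Radioligand competition binding, detected by scintillation counting; non-specific binding defined with excess unlabelled ligand. Results given as % inhibition of control specific binding; IC50 from Hill-equation fit of competition curves, Ki via Cheng-Prusoff with radioligand KD from Scatchard plot.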

[2] = biological target: T7, H1 histaminergic receptors (Homo sapiens, UniProt P35367); experiment: Radioligand binding assay, histaminergic H1 receptors; details: human recombinant (HEK-293 cells), [3H]pyrilamine 1 nM
T7 construct: expressed in transfected cells; host or cells: HEK-293 cells
Procedure, shortened: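 Competition binding at human H1 receptors; specific binding taken as total minus non-specific binding in excess unlabelled ligand, scintillation read-out. IC50 from Hill-equation fit of competition curves; Ki by Cheng-Prusoff using radioligand concentration and Kd (from Scatchard plot).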

T4 sequence (P50406 whole entry): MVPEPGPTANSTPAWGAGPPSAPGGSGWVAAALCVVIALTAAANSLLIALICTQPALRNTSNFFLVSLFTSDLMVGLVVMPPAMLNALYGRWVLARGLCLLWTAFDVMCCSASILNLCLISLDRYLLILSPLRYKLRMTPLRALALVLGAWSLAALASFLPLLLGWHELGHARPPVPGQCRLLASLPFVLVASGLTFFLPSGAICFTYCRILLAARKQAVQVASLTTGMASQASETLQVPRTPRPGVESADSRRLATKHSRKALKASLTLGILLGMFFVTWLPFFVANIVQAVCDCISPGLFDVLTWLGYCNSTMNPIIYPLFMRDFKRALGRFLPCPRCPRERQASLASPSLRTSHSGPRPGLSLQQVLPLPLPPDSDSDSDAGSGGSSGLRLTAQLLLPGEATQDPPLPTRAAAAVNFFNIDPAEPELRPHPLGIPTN
T2 sequence (P28223 whole entry): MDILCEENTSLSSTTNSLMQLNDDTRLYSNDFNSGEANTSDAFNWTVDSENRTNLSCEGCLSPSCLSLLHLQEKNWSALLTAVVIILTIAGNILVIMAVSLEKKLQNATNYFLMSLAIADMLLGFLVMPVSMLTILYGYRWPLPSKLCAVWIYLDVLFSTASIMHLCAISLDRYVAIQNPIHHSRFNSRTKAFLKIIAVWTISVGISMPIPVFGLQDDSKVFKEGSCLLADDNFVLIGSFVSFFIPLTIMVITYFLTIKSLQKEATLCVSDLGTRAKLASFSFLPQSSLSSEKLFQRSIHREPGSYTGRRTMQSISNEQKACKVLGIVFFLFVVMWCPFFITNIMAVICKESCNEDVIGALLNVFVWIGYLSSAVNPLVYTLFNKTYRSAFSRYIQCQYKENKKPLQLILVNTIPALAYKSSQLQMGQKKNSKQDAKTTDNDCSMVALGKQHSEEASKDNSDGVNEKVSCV
T7 sequence (P35367 whole entry): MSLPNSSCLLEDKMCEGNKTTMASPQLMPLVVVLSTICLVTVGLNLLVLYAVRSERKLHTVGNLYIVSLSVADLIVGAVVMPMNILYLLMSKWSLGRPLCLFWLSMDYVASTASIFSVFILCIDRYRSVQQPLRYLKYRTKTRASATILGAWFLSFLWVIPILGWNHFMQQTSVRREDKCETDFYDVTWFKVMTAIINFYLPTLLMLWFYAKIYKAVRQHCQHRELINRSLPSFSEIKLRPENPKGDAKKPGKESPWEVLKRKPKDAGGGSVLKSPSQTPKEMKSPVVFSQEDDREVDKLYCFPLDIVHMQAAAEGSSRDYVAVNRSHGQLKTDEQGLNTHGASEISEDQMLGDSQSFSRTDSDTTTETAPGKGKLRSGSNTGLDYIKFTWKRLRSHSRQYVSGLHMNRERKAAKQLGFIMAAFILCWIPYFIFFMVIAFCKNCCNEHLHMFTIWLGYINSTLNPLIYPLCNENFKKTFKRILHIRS
T6 sequence (P20309 whole entry): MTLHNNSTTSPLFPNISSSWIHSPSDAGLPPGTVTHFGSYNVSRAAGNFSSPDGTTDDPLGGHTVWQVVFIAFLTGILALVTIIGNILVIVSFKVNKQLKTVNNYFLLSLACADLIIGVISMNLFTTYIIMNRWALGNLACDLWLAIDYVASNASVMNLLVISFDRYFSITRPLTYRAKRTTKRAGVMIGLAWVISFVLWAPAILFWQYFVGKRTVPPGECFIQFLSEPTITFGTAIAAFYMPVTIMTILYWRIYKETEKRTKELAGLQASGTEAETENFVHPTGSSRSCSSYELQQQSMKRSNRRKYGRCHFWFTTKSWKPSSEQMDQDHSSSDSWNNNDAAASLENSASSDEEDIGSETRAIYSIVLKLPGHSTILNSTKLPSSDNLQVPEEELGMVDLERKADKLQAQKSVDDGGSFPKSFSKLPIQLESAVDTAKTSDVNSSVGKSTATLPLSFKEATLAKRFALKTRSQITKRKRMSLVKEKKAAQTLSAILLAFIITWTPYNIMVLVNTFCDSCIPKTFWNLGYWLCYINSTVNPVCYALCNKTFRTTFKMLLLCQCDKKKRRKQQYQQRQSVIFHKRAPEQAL
T5 sequence (P34969 whole entry): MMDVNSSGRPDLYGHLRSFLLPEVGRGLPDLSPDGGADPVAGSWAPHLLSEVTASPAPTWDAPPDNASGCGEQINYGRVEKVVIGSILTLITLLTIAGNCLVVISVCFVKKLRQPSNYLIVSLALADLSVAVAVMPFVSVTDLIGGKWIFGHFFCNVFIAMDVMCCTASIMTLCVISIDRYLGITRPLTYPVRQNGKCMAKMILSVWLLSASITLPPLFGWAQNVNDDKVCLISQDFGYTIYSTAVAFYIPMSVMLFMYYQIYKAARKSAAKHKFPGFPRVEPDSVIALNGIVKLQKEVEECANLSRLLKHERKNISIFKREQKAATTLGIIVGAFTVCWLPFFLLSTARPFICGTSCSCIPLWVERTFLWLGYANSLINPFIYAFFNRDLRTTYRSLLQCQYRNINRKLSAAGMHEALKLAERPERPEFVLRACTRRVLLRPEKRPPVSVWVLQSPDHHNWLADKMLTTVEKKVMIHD
Sequence of dopaminergic receptors D3 (P35462 whole entry): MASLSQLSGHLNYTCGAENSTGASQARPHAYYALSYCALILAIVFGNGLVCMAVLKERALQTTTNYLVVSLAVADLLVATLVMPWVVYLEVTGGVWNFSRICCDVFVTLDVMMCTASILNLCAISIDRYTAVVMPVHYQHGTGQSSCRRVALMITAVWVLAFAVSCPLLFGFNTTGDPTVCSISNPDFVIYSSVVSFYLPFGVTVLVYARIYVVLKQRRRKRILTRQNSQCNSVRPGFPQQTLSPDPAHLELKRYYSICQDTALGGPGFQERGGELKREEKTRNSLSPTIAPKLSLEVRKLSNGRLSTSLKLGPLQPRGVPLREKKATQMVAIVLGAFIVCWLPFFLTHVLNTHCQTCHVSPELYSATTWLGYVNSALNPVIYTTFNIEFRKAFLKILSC

SMILES: O=S(=O)(N[C@@H]1CCN(CCCc2noc3cc(F)ccc23)C1)c1csc2ccccc12 [Compound 224, N-[(3R)-1-[3-(6-Fluoro-1,2-benzoxazol-3-yl)propyl]pyrrolidin-3-yl]benzothiophene-3-sulphonamide]
- inhibition at 1 µM [1]: 87%
- inhibition at 1 µM (receptors D4.4): 101%
- Ki (5-HT2A receptor): 1.6 nM
- inhibition at 1 µM (5-HT2C receptor): 71%
- inhibition at 1 µM (5-HT6 receptor): 99%
- Ki (5-HT6 receptor): 4 nM
- inhibition at 1 µM (5-HT7 receptor): 103%
- inhibition at 1 µM (M3 muscarinic receptors): 25%
- inhibition at 1 µM [2]: 60%

SMILES: O=S(=O)(N[C@H]1CCN(CCCc2noc3cc(F)ccc23)C1)c1csc2ccccc12 [Compound 225, N-[(3S)-1-[3-(6-Fluoro-1,2-benzoxazol-3-yl)propyl]pyrrolidin-3-yl]benzothiophene-3-sulphonamide]
- inhibition at 1 µM [1]: 84%
- inhibition at 1 µM (receptors D4.4): 91%
- Ki (5-HT2A receptor): 0.9 nM
- inhibition at 1 µM (5-HT2C receptor): 72%
- inhibition at 1 µM (5-HT6 receptor): 99%
- Ki (5-HT6 receptor): 1.6 nM
- inhibition at 1 µM (5-HT7 receptor): 100%
- inhibition at 1 µM (M3 muscarinic receptors): 23%
- inhibition at 1 µM [2]: 57%
